Measurements reported in ChEMBL document CHEMBL3885861, “Open TG-GATES”.

Species on record: Rattus norvegicus
Assay: Open TG-GATES - Regimen: Daily Repeat
Type: toxicity, organism-based, Sprague-Dawley
Design: regimen Daily Repeat, gender Male, age 6 weeks
Settings: in vivo, po, 100 mg/kg, route gavage, dose level Middle; for APTT / Bas / Eos / Fbg / Hb / Ht / Lym / MCH / MCHC / MCV / Mono / Neu / PT / Plat / RBC / Ret / WBC: tissue Blood; for KIDNEY_L / KIDNEY_R / KIDNEY_TOTAL: tissue Kidney; for LIVER: tissue Liver; for A/G / ALP / ALT / AST / BUN / CRE / Ca / Cl / DBIL / GLC / IP / K / LDH / Na / PL / RALB / TBIL / TC / TG / TP / gamma-GTP: tissue Plasma

## O=C(O)COc1nn(Cc2ccccc2)c2ccccc12 [BENDAZAC]
72 h, time 3 day
  TERMINAL_BW: 231.3 g
  APTT: 17.2 s
  Bas: 0%
  Eos: 1%
  Fbg: 205 mg/dL
  Hb: 13.5 g/dL
  Ht: 40.4%
  Lym: 80.6%
  MCH: 21.6 pg
  MCHC: 33.4%
  MCV: 64.8 fL
  Mono: 6.8%
  Neu: 11.8%
  PT: 11.8 s
  Plat: 116.4 x10_4/uL
  RBC: 624.4 x10_4/ul
  Ret: 7.1%
  WBC: 112.6 x10_2/uL
  KIDNEY_L: 1 g
  KIDNEY_R: 1.1 g
  KIDNEY_TOTAL: 2.1 g
  LIVER: 11.7 g
  A/G: 2
  ALP: 987.2 IU/L
  ALT: 39.8 IU/L
  AST: 65.6 IU/L
  BUN: 15.8 mg/dL
  CRE: 0.6 mg/dL
  Ca: 10.8 mg/dL
  Cl: 104.2 meq/L
  DBIL: 0.048 mg/dL
  GLC: 199.8 mg/dL
  IP: 7 mg/dL
  K: 4.5 meq/L
  LDH: 107.6 IU/L
  Na: 140 meq/L
  PL: 153.6 mg/dL
  RALB: 3.8 g/dL
  TBIL: 0.4 mg/dL
  TC: 82 mg/dL
  TG: 79.8 mg/dL
  TP: 5.7 g/dL
  gamma-GTP: 1 IU/L
[…], time 7 day
  TERMINAL_BW: 259.9 g
  APTT: 17.3 s
  Bas: 0%
  Eos: 1.2%
  Fbg: 229.2 mg/dL
  Hb: 14.1 g/dL
  Ht: 41%
  Lym: 76.8%
  MCH: 21.7 pg
  MCHC: 34.3%
  MCV: 63.2 fL
  Mono: 8.4%
  Neu: 14%
  PT: 11.7 s
  Plat: 139.2 x10_4/uL
  RBC: 649.8 x10_4/ul
  Ret: 6.8%
  WBC: 114.5 x10_2/uL
  KIDNEY_L: 1.2 g
  KIDNEY_R: 1.1 g
  KIDNEY_TOTAL: 2.3 g
  LIVER: 13.1 g
  A/G: 2
  ALP: 927.8 IU/L
  ALT: 31.6 IU/L
  AST: 55.8 IU/L
  BUN: 18.8 mg/dL
  CRE: 0.5 mg/dL
  Ca: 11.1 mg/dL
  Cl: 105.6 meq/L
  DBIL: 0.014 mg/dL
  GLC: 206 mg/dL
  IP: 6.6 mg/dL
  K: 4.4 meq/L
  LDH: 110.8 IU/L
  Na: 140.6 meq/L
  PL: 141 mg/dL
  RALB: 3.8 g/dL
  TBIL: 0.4 mg/dL
  TC: 71.8 mg/dL
  TG: 108.6 mg/dL
  TP: 5.7 g/dL
  gamma-GTP: 1 IU/L
[…], time 14 day
  TERMINAL_BW: 309.7 g
  APTT: 17.7 s
  Bas: 0%
  Eos: 1%
  Fbg: 213.4 mg/dL
  Hb: 14.6 g/dL
  Ht: 43.2%
  Lym: 83.2%
  MCH: 20.5 pg
  MCHC: 33.9%
  MCV: 60.4 fL
  Mono: 4.8%
  Neu: 11.4%
  PT: 11.4 s
  Plat: 126.3 x10_4/uL
  RBC: 715 x10_4/ul
  Ret: 2.9%
  WBC: 124.2 x10_2/uL
  KIDNEY_L: 1.2 g
  KIDNEY_R: 1.3 g
  KIDNEY_TOTAL: 2.5 g
  LIVER: 14.8 g
  A/G: 1.6
  ALP: 909.2 IU/L
  ALT: 32.2 IU/L
  AST: 63 IU/L
  BUN: 18.8 mg/dL
  CRE: 0.6 mg/dL
  Ca: 10.3 mg/dL
  Cl: 106 meq/L
  DBIL: 0.04 mg/dL
  GLC: 198.6 mg/dL
  IP: 6.5 mg/dL
  K: 4.5 meq/L
  LDH: 108 IU/L
  Na: 140.8 meq/L
  PL: 145.6 mg/dL
  RALB: 3.8 g/dL
  TBIL: 0.4 mg/dL
  TC: 68 mg/dL
  TG: 125.4 mg/dL
  TP: 6.2 g/dL
  gamma-GTP: 1.8 IU/L
[…], time 28 day
  TERMINAL_BW: 386.1 g
  APTT: 18.1 s
  Bas: 0%
  Eos: 1.2%
  Fbg: 216.6 mg/dL
  Hb: 15.6 g/dL
  Ht: 45.8%
  Lym: 87%
  MCH: 19.5 pg
  MCHC: 34%
  MCV: 57.2 fL
  Mono: 2.2%
  Neu: 9%
  PT: 12 s
  Plat: 113.7 x10_4/uL
  RBC: 801.2 x10_4/ul
  Ret: 2.2%
  WBC: 131.2 x10_2/uL
  KIDNEY_L: 1.4 g
  KIDNEY_R: 1.4 g
  KIDNEY_TOTAL: 2.8 g
  LIVER: 17.3 g
  A/G: 1.4
  ALP: 669.2 IU/L
  ALT: 31.4 IU/L
  AST: 62.4 IU/L
  BUN: 20 mg/dL
  CRE: 0.6 mg/dL
  Ca: 9.7 mg/dL
  Cl: 103.8 meq/L
  DBIL: 0.02 mg/dL
  GLC: 189.2 mg/dL
  IP: 5.7 mg/dL
  K: 4.4 meq/L
  LDH: 102.8 IU/L
  Na: 139.6 meq/L
  PL: 136.8 mg/dL
  RALB: 3.7 g/dL
  TBIL: 0.4 mg/dL
  TC: 61.4 mg/dL
  TG: 154.4 mg/dL
  TP: 6.2 g/dL
  gamma-GTP: 1.2 IU/L
